# Results from PubChem BioAssay (NCI).
#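 Where inhibition never reached the appropriate level, the endpoint shown equals the highest concentration tested. Otherwise, values were interpolated linearly from a five-concentration, 48-hour dose response in 96-well plates. GI50 = concentration required for 50% inhibition of growth. TGI is the concentration that stops growth completely.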
# What was measured:
# Assay in all cases: NCI-60 cell line screen, 48 h
# [1] = tested on: T-47D breast
# [2] = tested on: HL-60(TB) leukemia
# [3] = tested on: MALME-3M melanoma
# [4] = tested on: NCI-H460 lung
# [5] = tested on: LOX IMVI melanoma
# [6] = tested on: HT29 colon
# [7] = tested on: NCI-H23 lung
# [8] = tested on: HCT-116 colon
# [9] = tested on: A549 NSCLC
# [10] = tested on: SK-MEL-5 melanoma
SMILES,GI50 [1] [µM],TGI [1] [µM],GI50 [2] [µM],TGI [2] [µM],GI50 [3] [µM],TGI [3] [µM],GI50 [4] [µM],TGI [4] [µM],GI50 [5] [µM],TGI [5] [µM],GI50 [6] [µM],TGI [6] [µM],GI50 [7] [µM],TGI [7] [µM],GI50 [8] [µM],TGI [8] [µM],GI50 [9] [µM],TGI [9] [µM],GI50 [10] [µM],TGI [10] [µM]
Cc1nc(-c2cnc(NC(C)C)n(C)c2=O)ccc1Oc1ccnc(-c2cnn(C)c2)c1,7.39,99.7,4.31,26.6,12.6,68.8,13.2,> 100,20.7,> 100,5.28,68,13.3,> 100,4.67,> 100,15,> 100,4.59,19.5
CN(C)C=NC1CCC(C(C)(C)C)CC1 (centres undefined),,37.5,,33.2,,34.9,,35.1,,29.7,,21.6,,34.3,,31.9,,38.9,,31
O=c1ccc(=O)n(-c2ccccc2)[nH]1,,> 100,,> 100,,> 100,,> 100,,> 100,,> 100,,> 100,,> 100,,> 100,,> 100
O=C(COc1ccc(OCC(=O)N2C(=O)CN(c3ccccc3)C2=S)cc1)N1C(=O)CN(c2ccccc2)C1=S,> 25,> 100,,> 100,36.7,> 100,> 25,> 100,29.6,> 100,> 25,> 100,> 25,> 100,> 25,> 100,> 25,> 100,> 100,> 100
CN(C)Cc1ccc(C(C)(C)C)cc1-c1cc(C(C)(C)C)ccc1CN(C)C,,> 100,,> 100,,79.6,,> 100,,> 100,,> 100,,> 100,,> 100,,> 100,,> 100
CCOC(=O)c1c(NC(=O)c2ccccc2)sc2c3c(ccc12)OCN(C)C3,1.76,3.78,1.81,3.88,1.78,3.43,1.87,3.53,1.62,3.03,2,4.25,1.78,3.78,1.77,3.27,1.73,3.56,1.74,3.14
CCN(CC)CCC(CNc1ccnc2cc(Cl)ccc12)c1ccccc1 (centres undefined),2.85,8.08,4.22,29.2,2.05,3.88,8.36,29,1.77,5.17,0.493,10.4,11.5,38.8,2.8,15.4,11.6,26.3,1.69,3.07
NC(Cc1c[nH]c2ccc(F)cc12)C(=O)O (centres undefined),1730,> 2500,737,> 2500,490,1130,730,> 2500,509,1860,911,> 2500,1540,> 2500,853,> 2500,855,> 2500,375,711
